In experiment [1] the target is T1, muscarinic receptors (M1 -site, pirenzepine sensitive site) (Rattus norvegicus, UniProt P08482).
T1 construct: from tissue; host or cells: cerebral cortex membranes of male Wistar rats
T1 sequence (P08482 1-460): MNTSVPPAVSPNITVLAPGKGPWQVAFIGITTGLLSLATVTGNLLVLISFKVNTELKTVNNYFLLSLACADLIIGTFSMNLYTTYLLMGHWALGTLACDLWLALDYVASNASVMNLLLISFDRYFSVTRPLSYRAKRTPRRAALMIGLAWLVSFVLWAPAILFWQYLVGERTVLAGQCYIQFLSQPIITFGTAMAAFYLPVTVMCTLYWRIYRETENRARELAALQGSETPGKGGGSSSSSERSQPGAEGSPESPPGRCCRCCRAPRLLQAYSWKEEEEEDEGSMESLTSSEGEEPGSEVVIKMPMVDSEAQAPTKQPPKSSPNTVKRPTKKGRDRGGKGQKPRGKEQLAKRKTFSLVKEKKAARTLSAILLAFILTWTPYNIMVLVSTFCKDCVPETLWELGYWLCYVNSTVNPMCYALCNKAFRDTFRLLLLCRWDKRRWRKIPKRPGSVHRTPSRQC
The experiment in a line: inhibition of ^3 HPRZ (pirenzepine, [N-methyl-^3 H]) binding to rat cerebral cortex membranes. More on the design: species or system rat (male Wistar. The essentials: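 Male Wistar rat cortex membranes in 20 mM Hepes pH 7.4 were incubated with 1.0 nM (final) [3H]pirenzepine for 60 min at 20° C; nonspecific binding was defined with 1 μg/mL atropine. Filtration and scintillation counting were used, and IC50 was calculated from a single concentration assuming mass-action kinetics.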

The target of experiment [2] is muscarinic acetylcholine receptors. Put plainly: inhibition of specific binding of ^3 H-Oxotremorine-M (^3 H-Oxo). Also on record: species or system rat (male Wistar. The settings on record: ^3 H-Oxotremorine 1.0 nM, rat cortex, 30 min. at 25° C. The essentials:
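Rat cortex membranes (male Wistar) in 20 mM Hepes pH 7.4 incubated with 1.0 nM ^3H-Oxotremorine-M (final) and test compound for 30 min at 25 °C; arecoline defines non-specific binding. Bound radioactivity by filtration and scintillation counting; IC50 (nM) from a single concentration via Co/Cx mass-action formula, reflecting high- and medium-affinity sites.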

Where [3] appears, read: ^3 HPRZ 1.0 nM, rat cortex, 60 min. at 20° C., read-out: ^3 HPRZ IC50 (head from b208 on: Pir IC-50).

Where two headings read alike, the source gives them in different places.

Regarding `Fc1ccc(OCCSc2nsnc2OC2CC3CCC2NC3)cc1` (mixture of isomers) [Compound 164, (±)-exo-3-(2-[Fluorophenoxy]ethylthio)-4-(2-azabicyclo[2.2.2]octyl-6-oxy)-1,2,5-thiadiazole], the values for the IC50 in experiment [1] (setting [3]) and in experiment [2] were 16.6 nM and 5.28 nM, respectively.

On to `O=C1CCCn2cccc21` [Compound 139, 1-azabicyclo[4.3.0]nona-6,8-diene-5-one], for which the values for the IC50 in experiment [1] (setting [3]) and in experiment [2] were 145 nM and 230 nM, respectively.

Regarding `CCCCSc1nsnc1O[C@@H]1CN2CC[C@@H]1C2` (relative stereo) [Compound 131, (±)exo-3-Butylthio-4-(1-azabicyclo[2.2.1]heptyl-3-oxy)-1,2,5-thiadiazole], the IC50 came to 46 nM in experiment [1] and 5.6 nM in experiment [2].

Consider `C(#Cc1ccccc1)COc1nsnc1OC1CN2CCC1CC2` (racemic) [Compound 107, (±)-3-(3-phenylpropynyloxy)-4-(1-azabicyclo[2.2.2]octyl-3-oxy)-1,2,5-thiadiazole], for which the IC50 is 22.4 nM in experiment [1] and 9.6 nM in experiment [2].

In the case of `CCCCOc1nsnc1SCCN(C)C` [Compound 36, 3-Butyloxy-4-(2-(dimethylamino)ethylthio)-1,2,5-thiadiazole], the IC50 was 217 nM in experiment [1] (setting [3]) and 204 nM in experiment [2].

As for `CCCCOc1nsnc1O[C@H]1CN2CC[C@H]1C2` (relative stereo) [Compound 26, (±)-Exo-3-butyloxy-4-(1-azabicyclo[2.2.1]heptyl-3-oxy)-1,2,5-thiadiazole], the IC50 was determined as 37 nM in experiment [1] and 11 nM in experiment [2].

In the case of `CCCCSc1nsnc1O[C@@H]1CN2CCC[C@H]1C2` [Compound 137, (5S, 6S)-endo-3-Butylthio-4-(1-azabicyclo[3.2.1]octyl-6-oxy)-1,2,5-thiadiazole], the IC50 was determined as 2.1 nM in experiment [1] (setting [3]) and 7.39 nM in experiment [2].

Take `FC(F)(F)C(F)(F)C(F)(F)COc1nsnc1OC1CN2CCC1CC2` (racemic) [Compound 69, (±)3-(2,2,3,3,4,4,4-heptafluorobutyloxy)-4-[-3-(1-azabicyclo[2.2.2]octyloxy)]-1,2,5-thiadiazole]: the IC50 stood at 20 nM in experiment [1] and 29 nM in experiment [2].

As to `CCCCSc1nsnc1OC1CC2CCC1NC2` (racemic) [Compound 65, (±)3-Butylthio-4-(exo-2-azabicyclo[2.2.2]oct-6-yloxy)-1,2,5-thiadiazole], the half-inhibitory concentration (IC50) is 0.72 nM in experiment [1] (setting [3]) and 2.3 nM in experiment [2].

As to `Clc1nsnc1O[C@@H]1CN2CCC[C@@H]1C2` (relative stereo) [Compound 47, (±)-exo-3-Chloro-4-(1-azabicyclo[3.2.1]octyl-6-oxy)-1,2,5thiadiazole], the IC50 in experiment [1] amounted to 23 nM; in experiment [2], 54 nM.

On to `CCCCOc1nsnc1O[C@@H]1CN2CC[C@H]1C2` (relative stereo) [Compound 25, (±)-endo-3-Butyloxy-4-(1-azabicyclo[2.2.1]heptyl-3-oxy)-1,2,5-thiadiazol], for which the IC50 came to 2.1 nM in experiment [1] and 1.8 nM in experiment [2].

Consider `FCCCOc1nsnc1OC1CN2CCC1CC2` (racemic) [Compound 123, (±)-3-(3-Fluoropropyloxy)-4-(1-azabicyclo[2.2.2]octyl-3-oxy)-1,2,5-thiadiazole], for which the results for the IC50 in experiment [1] (setting [3]) and in experiment [2] were 106 nM and 42 nM, respectively.

`CCCCS(=O)(=O)c1nsnc1OC1CN2CCC1CC2` (racemic) [Compound 102, (±)-3-Butylsulfonyl-4-(1-azabicyclo[2.2.2]octyl-3-oxy)-1,2,5-thiadiazole]: the results for the IC50 in experiment [1] (setting [3]) and in experiment [2] were 187 nM and 378 nM, respectively.

Consider `Clc1nsnc1OC1CN2CCC1CC2` (racemic) [Compound 12, (±)-3-Chloro-4-(1-azabicyclo[2.2.2]octyl-3-oxy)-1,2,5-thiadiazole], for which the IC50 in experiment [1] was 86 nM; in experiment [2] it was 73 nM.

For the molecule `Fc1ccc(COc2nsnc2O[C@@H]2CN3CCC[C@H]2C3)c(F)c1` (relative stereo) [Compound 195, (±)-endo-3-(2,4-Difluorobenzyloxy)-4-(1-azabicyclo[3.2.1]octyl-6-oxy)-1,2,5-thiadiazole], the values for the IC50 in experiment [1] (setting [3]) and in experiment [2] were 7.5 nM and 4.9 nM, respectively.

On to `C/C=C\COc1nsnc1OC1CN2CCC1CC2` (mixture of isomers) [Compound 110, (±)-3-(cis-2-butenyloxy)-4-(1-azabicyclo[2.2.2]octyl-3-oxy)-1,2,5-thiadiazole], for which the IC50 in experiment [1] was found to be 50.4 nM; in experiment [2] it was 13.2 nM.

With `CCCCCSc1nsnc1O[C@H]1CN2CCC1CC2` [Compound 38, (R)-3-Pentylthio-4-(1-azabicyclo[2.2.2]octyl-3-oxy)-1,2,5-thiadiazole], the results for the IC50 in experiment [1] and in experiment [2] were 1.9 nM and 1 nM, respectively.

`FC(F)(F)C(F)(F)COc1nsnc1OC1CN2CCC1CC2` (racemic) [Compound 125, (±)-3-(3,3,3,2,2-Pentafluoropropyloxy)-4-(1-azabicyclo[2.2.2]octyl-3-oxy)-1,2,5-thiadiazole]: the IC50 was determined as 191 nM in experiment [1] (setting [3]) and 36 nM in experiment [2].

Regarding `Clc1nsnc1O[C@H]1CN2CCC[C@@H]1C2` (relative stereo) [Compound 48, (±)-endo-3-Chloro-4-(1-azabicyclo [3.2.1]octyl-6-oxy)-1,2,5-thiadiazole], the IC50 in experiment [1] was 27 nM; in experiment [2] it was 14 nM.

On to `CC(C)(C)CCSc1nsnc1OC1CN2CCC1CC2` (racemic) [Compound 18, (±)-3-(3,3-Dimethylbutylthio)-4-(1-azabicyclo[2.2.2]-octyl-3-oxy)-1,2,5-thiadiazole], for which the results for the IC50 in experiment [1] and in experiment [2] were 73 nM and 101 nM, respectively.

On to `CCCCOc1nsnc1O[C@@H]1CCC[C@H]1N(C)C` (racemic) [Compound 52, (±)-trans-3-Butyloxy-4-(2-dimethylaminocyclopentyloxy)-1,2,5-thiadiazole], for which the IC50 in experiment [1] (setting [3]) is 475 nM; in experiment [2], over 1000 nM.

Take `CCCCCSc1nsnc1OC1CN2CCC1CC2` (racemic) [Compound 15, (±)-3-Pentylthio-4-(1-azabicyclo[2.2.2]octyl-3-oxy)-1,2,5-thiadiazole]: the IC50 in experiment [1] was 2.3 nM; in experiment [2] it was 1.6 nM.

Take `c1ccc2c(OCCOc3nsnc3OC3CN4CCC3CC4)cccc2c1` (racemic) [Compound 127, (±)-3-(2-[1-Napthyloxy]ethoxy)-4-(1-azabicyclo [2.2.2]octyl-3-oxy)-1,2,5-thiadiazole]: the IC50 was found to be 373 nM in experiment [1] (setting [3]) and 61 nM in experiment [2].

In the case of `O=C(CCSc1nsnc1OC1CN2CCC1CC2)c1ccc(F)cc1` (racemic) [Compound 150, (±)-3-(3-[4-Fluorophenyl]propan-3-onethio)-4-(1-azabicyclo[2,2.2]octyl-3-oxy)-1,2,5-thiadiazole], the IC50 turned out to be 36 nM in experiment [1] and 17 nM in experiment [2].

As for `FC(F)(F)c1ccc(CCCSc2nsnc2OC2CN3CCC2CC3)cc1` (racemic) [Compound 74, (±)3-{3-[4-(Trifluoromethyl)phenyl]propylthio}-4-[-3-(1-azabicyclo[2.2.2]octyloxy)]-1,2,5-thiadiazole], the IC50 was 40 nM in experiment [1] and 24 nM in experiment [2].

As for `FC(F)(F)CCCOc1nsnc1OC1CC2CCC1NC2` (mixture of isomers) [Compound 162, (±)-endo-3-(4,4,4-Trifluorobutyloxy)-4-(2-azabicyclo[2.2.2]octyl-6-oxy)-1,2,5-thiadiazole], the values for the IC50 in experiment [1] (setting [3]) and in experiment [2] were 128 nM and 179 nM, respectively.

In the case of `c1csc(-c2ccc(SCCSc3nsnc3OC3CN4CCC3CC4)s2)c1` (racemic) [Compound 59, (±)-3-(2-(2-(5-(2-Thienyl)thienyl)thio)ethylthio)-4-(1-azabicyclo[2.2.2]octyl-3-oxy)-1,2,5-thiadiazole], the IC50 was found to be 102 nM in experiment [1] (setting [3]) and 104 nM in experiment [2].

For the molecule `Fc1ccc(OCCSc2nsnc2OC2CN3CCC2CC3)cc1` (racemic) [Compound 207, (±)-3-(2-[4-fluorophenoxy]ethylthio)-4-(1-azabicyclo[2.2.2]octyl-3-oxy)-1,2,5-thiadiazole], the results for the IC50 in experiment [1] and in experiment [2] were 6 nM and 2.4 nM, respectively.

Take `C=CCCOc1nsnc1OC1CN2CCC1CC2` (racemic) [Compound 108, (±)-3-(3-Butenyloxy)-4-(1-azabicyclo[2.2.2]octyl-3-oxy)-1,2,5-thiadiazole]: the IC50 in experiment [1] worked out at 56.1 nM; in experiment [2], 9.1 nM.

Turning to `FC(F)(F)CCCOc1nsnc1OC1CN2CCC1CC2` (racemic) [Compound 104, (±)-3-(4,4,4-Trifluorobutyloxy)-4-(1-azabicyclo[2.2.2]octyl-3-oxy)-1,2,5-thiadiazole], the IC50 in experiment [1] (setting [3]) was determined as 115 nM; in experiment [2], 107 nM.

In the case of `FC(F)(F)CCCOc1nsnc1O[C@@H]1CN2CCC[C@H]1C2` (relative stereo) [Compound 167, (±)-endo-3-(4,4,4-Trifluorobutoxy)-4-(1-azabicyclo[3.2.1]octyl-6-oxy)-1,2,5-thiadiazole], the IC50 in experiment [1] (setting [3]) is 2 nM; in experiment [2], 2.8 nM.

The term IC50 denotes the concentration at which inhibition is half-maximal.

The values are drawn from US5665745A, “Heterocyclic compounds and their preparation and use” (Eli Lilly and Company, priority 1995, dated 1997).
